Experimental data published in patent publication US12421282B2, “Compositions and methods for the treatment of metabolic and liver disorders” (priority 2021, dated 2025).
Read-outs that look alike come from different tables or passages of the source. *1 amine or outer side, *2 acyl side, *3 side chain or, on linkers, in order; H or OH if unused. Where a SMILES comes first, the peptide text is derived from it. Side-chain parts run from the residue outwards. [ ]: non-standard residue; d: D form. The star is where a group is joined. Nonadecanoyl(19-PO3H2) = O=C(CCCCCCCCCCCCCCCCCCP(=O)(O)O)*; γGlu = O=C(O)[C@H](CCC(=O)[*:2])N[*:1]; AEEA = NCCOCCOCC(=O)O; Aib = CC(C)(N)C(=O)O

Key:
[1] = target: human recombinant GLP-1 receptor (Homo sapiens, UniProt P43220); assay: TagLite binding assay, GLP-1 receptor, without and with 2% HSA
Description: (§1) Binding data for Compounds 15-25, for two human recombinant G protein coupled receptors, GLP-1 and GIP, was obtained using […]® binding assay and Epics Therapeutics cell lines. The binding assay was repeated in the presence of 2% human serum albumin (HSA). Compounds 16, 21, and 22 have an HSA ratio for the GLP-1 receptor of 7.1, 7.6, and 7.8, respectively. Compounds 15, 18, and 23 have an HSA ratio for the GIP receptor of 7.3, 4.3, and 6.4, respectively. A lower HSA ratio indicates greater binding affinity for the receptor than for albumin when compared to a compound with a greater HSA ratio.

[2] = parameters: species or system cynomolgus monkeys; conditions: cynomolgus monkey, in vivo, sc, 0.2 mg/kg
Protocol: Subcutaneous (SC) dosing of the compounds in a vehicle of 0.1% bovine serum albumin in phosphate buffered saline solution was performed with male cynomolgus monkeys. […] Samples were obtained at 1, 4, 8, 12, 24, 48, 72, 96, 120, 168, 192, 240 and 336 hours after the single dose was administered.

[3] = target: T1, human recombinant GIP receptor (Homo sapiens, UniProt P48546); assay: TagLite binding assay, GIP receptor, without and with 2% HSA
T1 sequence (P48546 22-466): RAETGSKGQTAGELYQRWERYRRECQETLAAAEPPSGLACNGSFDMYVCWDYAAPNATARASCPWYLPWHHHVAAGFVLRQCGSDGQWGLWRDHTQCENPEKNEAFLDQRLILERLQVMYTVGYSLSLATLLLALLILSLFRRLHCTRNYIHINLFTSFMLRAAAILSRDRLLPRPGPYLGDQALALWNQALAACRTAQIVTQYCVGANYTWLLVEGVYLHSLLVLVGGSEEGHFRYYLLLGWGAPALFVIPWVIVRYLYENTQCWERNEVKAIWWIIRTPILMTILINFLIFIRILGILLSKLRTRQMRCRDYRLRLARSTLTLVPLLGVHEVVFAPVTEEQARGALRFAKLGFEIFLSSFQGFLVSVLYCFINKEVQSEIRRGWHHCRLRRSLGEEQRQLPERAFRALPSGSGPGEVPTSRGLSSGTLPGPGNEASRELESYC
Description: as §1

[4] = 2% human serum albumin, read-out: GLP-1 receptor IC50 2% HSA
[5] = no HSA, read-out: GLP-1 receptor IC50 No HSA
[6] = 2% human serum albumin, read-out: GIP receptor IC50 2% HSA
[7] = no HSA, read-out: GIP receptor IC50 No HSA

human recombinant GLP-1 receptor, sequence (P43220 24-463): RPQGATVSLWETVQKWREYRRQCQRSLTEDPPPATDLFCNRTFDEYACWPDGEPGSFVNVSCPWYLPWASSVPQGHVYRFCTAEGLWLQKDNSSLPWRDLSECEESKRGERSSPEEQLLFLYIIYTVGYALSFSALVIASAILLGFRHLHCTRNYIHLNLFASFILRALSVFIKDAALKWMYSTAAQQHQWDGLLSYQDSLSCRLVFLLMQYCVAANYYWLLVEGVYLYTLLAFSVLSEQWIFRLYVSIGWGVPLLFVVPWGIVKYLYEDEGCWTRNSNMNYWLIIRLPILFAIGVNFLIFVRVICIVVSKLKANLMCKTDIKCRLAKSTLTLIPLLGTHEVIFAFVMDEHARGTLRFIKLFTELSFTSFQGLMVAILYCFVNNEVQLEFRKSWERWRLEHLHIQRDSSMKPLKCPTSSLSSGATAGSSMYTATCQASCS

SMILES	IC50 [1, 4]	IC50 [1, 5]	AUC(0-inf) [2]	AUC(0-t) [2]	Cmax [2]	Tmax [2]	half-life [2]	IC50 [3, 6]	IC50 [3, 7]	mean half life longer compared to tirzepatide [2]
CC[C@H](C)[C@H](NC(=O)[C@H](CCCCN)NC(=O)[C@H](CC(=O)O)NC(=O)[C@H](CC(C)C)NC(=O)[C@H](Cc1ccccc1)NC(=O)[C@@H](NC(=O)[C@H](CO)NC(=O)[C@H](Cc1ccc(O)cc1)NC(=O)[C@H](CC(=O)O)NC(=O)[C@H](CO)NC(=O)[C@@H](NC(=O)[C@H](Cc1ccccc1)NC(=O)[C@@H](NC(=O)CNC(=O)[C@H](CCC(=O)O)NC(=O)C(C)(C)NC(=O)[C@@H](N)Cc1ccc(O)cc1)[C@@H](C)O)[C@@H](C)O)[C@@H](C)CC)C(=O)N[C@@H](C)C(=O)N[C@@H](CCC(N)=O)C(=O)N[C@@H](CCCCNC(=O)COCCOCCNC(=O)COCCOCCNC(=O)CC[C@H](NC(=O)CCCCCCCCCCCCCCCCCCP(=O)(O)O)C(=O)O)C(=O)N[C@@H](C)C(=O)N[C@@H](Cc1ccccc1)C(=O)N[C@H](C(=O)N[C@@H](CCC(N)=O)C(=O)N[C@@H](Cc1c[nH]c2ccccc12)C(=O)N[C@@H](CC(C)C)C(=O)N[C@H](C(=O)N[C@@H](C)C(=O)NCC(=O)NCC(=O)N1CCC[C@H]1C(=O)N[C@@H](CO)C(=O)N[C@@H](CO)C(=O)NCC(=O)N[C@@H](C)C(=O)N1CCC[C@H]1C(=O)N1CCC[C@H]1C(=O)N1CCC[C@H]1C(=O)N[C@@H](CO)C(N)=O)[C@@H](C)CC)C(C)C [Compound 18] (H-Y[Aib]EGTFTSDYSIFLDKIAQK([AEEA-AEEA-γGlu-Nonadecanoyl(19-PO3H2)])AFVQWLIAGGPSSGAPPPS-NH2)	1520 nM	166 nM	149 µg·h/mL	140 µg·h/mL	1340 ng/mL	13.3 h	81.1 h	2850 nM	659 nM	
CC[C@H](C)[C@H](NC(=O)[C@H](CC(C)C)NC(=O)[C@H](Cc1c[nH]c2ccccc12)NC(=O)[C@H](CCC(N)=O)NC(=O)[C@@H](NC(=O)[C@H](Cc1ccccc1)NC(=O)[C@H](C)NC(=O)[C@H](CCCCNC(=O)COCCOCCNC(=O)COCCOCCNC(=O)CC[C@H](NC(=O)CCCCCCCCCCCCCCCCCCP(=O)(O)O)C(=O)O)NC(=O)[C@H](CCC(N)=O)NC(=O)[C@H](C)NC(=O)[C@@H](NC(=O)[C@H](CCCCN)NC(=O)[C@H](CC(=O)O)NC(=O)[C@H](CC(C)C)NC(=O)C(C)(C)NC(=O)[C@@H](NC(=O)[C@H](CO)NC(=O)[C@H](Cc1ccc(O)cc1)NC(=O)[C@H](CC(=O)O)NC(=O)[C@H](CO)NC(=O)[C@@H](NC(=O)[C@H](Cc1ccccc1)NC(=O)[C@@H](NC(=O)CNC(=O)[C@H](CCC(=O)O)NC(=O)C(C)(C)NC(=O)[C@@H](N)Cc1ccc(O)cc1)[C@@H](C)O)[C@@H](C)O)[C@@H](C)CC)C(C)C)C(C)C)C(=O)N[C@@H](C)C(=O)NCC(=O)NCC(=O)N1CCC[C@H]1C(=O)N[C@@H](CO)C(=O)N[C@@H](CO)C(=O)NCC(=O)N[C@@H](C)C(=O)N1CCC[C@H]1C(=O)N1CCC[C@H]1C(=O)N1CCC[C@H]1C(=O)N[C@@H](CO)C(N)=O [Compound 17] (H-Y[Aib]EGTFTSDYSI[Aib]LDKVAQK([AEEA-AEEA-γGlu-Nonadecanoyl(19-PO3H2)])AFVQWLIAGGPSSGAPPPS-NH2)	3740 nM	316 nM	286 µg·h/mL	254 µg·h/mL	2300 ng/mL	6.67 h	102 h	4170 nM	543 nM	at least 50%
CC[C@H](C)[C@H](NC(=O)[C@H](CC(C)C)NC(=O)[C@H](Cc1c[nH]c2ccccc12)NC(=O)[C@H](CCC(N)=O)NC(=O)[C@@H](NC(=O)[C@H](Cc1ccccc1)NC(=O)[C@H](C)NC(=O)[C@H](CCCCNC(=O)COCCOCCNC(=O)COCCOCCNC(=O)CC[C@H](NC(=O)CCCCCCCCCCCCCCCCCCP(=O)(O)O)C(=O)O)NC(=O)[C@H](CCC(N)=O)NC(=O)[C@H](CO)NC(=O)[C@@H](NC(=O)[C@H](CCCCN)NC(=O)[C@H](CC(=O)O)NC(=O)[C@H](CC(C)C)NC(=O)C(C)(C)NC(=O)[C@@H](NC(=O)[C@H](CO)NC(=O)[C@H](Cc1ccc(O)cc1)NC(=O)[C@H](CC(=O)O)NC(=O)[C@H](CO)NC(=O)[C@@H](NC(=O)[C@H](Cc1ccccc1)NC(=O)[C@@H](NC(=O)CNC(=O)[C@H](CCC(=O)O)NC(=O)C(C)(C)NC(=O)[C@@H](N)Cc1ccc(O)cc1)[C@@H](C)O)[C@@H](C)O)[C@@H](C)CC)[C@@H](C)CC)C(C)C)C(=O)N[C@@H](C)C(=O)NCC(=O)NCC(=O)N1CCC[C@H]1C(=O)N[C@@H](CO)C(=O)N[C@@H](CO)C(=O)NCC(=O)N[C@@H](C)C(=O)N1CCC[C@H]1C(=O)N1CCC[C@H]1C(=O)N1CCC[C@H]1C(=O)N[C@@H](CO)C(N)=O [Compound 24] (H-Y[Aib]EGTFTSDYSI[Aib]LDKISQK([AEEA-AEEA-γGlu-Nonadecanoyl(19-PO3H2)])AFVQWLIAGGPSSGAPPPS-NH2)	6830 nM	686 nM	348 µg·h/mL	302 µg·h/mL	2130 ng/mL	22.7 h	111 h	11400 nM	1160 nM	at least 50%
CC[C@H](C)[C@H](NC(=O)[C@H](CC(C)C)NC(=O)[C@H](Cc1c[nH]c2ccccc12)NC(=O)[C@H](CCC(N)=O)NC(=O)[C@@H](NC(=O)[C@H](Cc1ccccc1)NC(=O)[C@H](C)NC(=O)[C@H](CCCCNC(=O)COCCOCCNC(=O)COCCOCCNC(=O)CC[C@H](NC(=O)CCCCCCCCCCCCCCCCCCP(=O)(O)O)C(=O)O)NC(=O)[C@H](CCC(N)=O)NC(=O)[C@H](C)NC(=O)[C@@H](NC(=O)[C@H](CCCCN)NC(=O)[C@H](CC(=O)O)NC(=O)[C@H](CC(C)C)NC(=O)[C@H](Cc1ccccc1)NC(=O)[C@@H](NC(=O)[C@H](CO)NC(=O)[C@H](Cc1ccc(O)cc1)NC(=O)[C@H](CC(=O)O)NC(=O)[C@H](CO)NC(=O)[C@@H](NC(=O)[C@H](Cc1ccccc1)NC(=O)[C@@H](NC(=O)CNC(=O)[C@H](CCC(=O)O)NC(=O)C(C)(C)NC(=O)[C@@H](N)Cc1ccc(O)cc1)[C@@H](C)O)[C@@H](C)O)[C@@H](C)CC)C(C)C)C(C)C)C(=O)N[C@@H](C)C(=O)NCC(=O)NCC(=O)N1CCC[C@H]1C(=O)N[C@@H](CO)C(=O)N[C@@H](CO)C(=O)NCC(=O)N[C@@H](C)C(=O)N1CCC[C@H]1C(=O)N1CCC[C@H]1C(=O)N1CCC[C@H]1C(=O)N[C@@H](CO)C(N)=O [Compound 19] (H-Y[Aib]EGTFTSDYSIFLDKVAQK([AEEA-AEEA-γGlu-Nonadecanoyl(19-PO3H2)])AFVQWLIAGGPSSGAPPPS-NH2)	1340 nM	153 nM	175 µg·h/mL	159 µg·h/mL	1240 ng/mL	20 h	96.7 h	4440 nM	551 nM	at least 50%
